Assay results as given in ChEMBL document CHEMBL4184177, “Synthesis and bioevaluation study of novel N-methylpicolinamide and thienopyrimidine derivatives as selectivity c-Met kinase inhibitors” (Bioorg Med Chem, 2018).

Columns and labels:
HepG2 = assay: cells; settings: Homo sapiens, HepG2, 72 h
Description: Cytotoxicity against human HepG2 cells after 72 hrs by MTT assay

MCF7 = assay: cells; settings: Homo sapiens, MCF7, 72 h
Description: Cytotoxicity against human MCF7 cells after 72 hrs by MTT assay

A549 = assay: Cytotoxicity against human A549 cells after 72 hrs by MTT assay; settings: A549, 72 h
[1] = target: Hepatocyte growth factor receptor (Homo sapiens, UniProt P08581); assay: Inhibition of c-Met (unknown origin) using FAM-labeled peptide substrate after 10 mins by mobility shift assay
Chain of Hepatocyte growth factor receptor (P08581 whole entry): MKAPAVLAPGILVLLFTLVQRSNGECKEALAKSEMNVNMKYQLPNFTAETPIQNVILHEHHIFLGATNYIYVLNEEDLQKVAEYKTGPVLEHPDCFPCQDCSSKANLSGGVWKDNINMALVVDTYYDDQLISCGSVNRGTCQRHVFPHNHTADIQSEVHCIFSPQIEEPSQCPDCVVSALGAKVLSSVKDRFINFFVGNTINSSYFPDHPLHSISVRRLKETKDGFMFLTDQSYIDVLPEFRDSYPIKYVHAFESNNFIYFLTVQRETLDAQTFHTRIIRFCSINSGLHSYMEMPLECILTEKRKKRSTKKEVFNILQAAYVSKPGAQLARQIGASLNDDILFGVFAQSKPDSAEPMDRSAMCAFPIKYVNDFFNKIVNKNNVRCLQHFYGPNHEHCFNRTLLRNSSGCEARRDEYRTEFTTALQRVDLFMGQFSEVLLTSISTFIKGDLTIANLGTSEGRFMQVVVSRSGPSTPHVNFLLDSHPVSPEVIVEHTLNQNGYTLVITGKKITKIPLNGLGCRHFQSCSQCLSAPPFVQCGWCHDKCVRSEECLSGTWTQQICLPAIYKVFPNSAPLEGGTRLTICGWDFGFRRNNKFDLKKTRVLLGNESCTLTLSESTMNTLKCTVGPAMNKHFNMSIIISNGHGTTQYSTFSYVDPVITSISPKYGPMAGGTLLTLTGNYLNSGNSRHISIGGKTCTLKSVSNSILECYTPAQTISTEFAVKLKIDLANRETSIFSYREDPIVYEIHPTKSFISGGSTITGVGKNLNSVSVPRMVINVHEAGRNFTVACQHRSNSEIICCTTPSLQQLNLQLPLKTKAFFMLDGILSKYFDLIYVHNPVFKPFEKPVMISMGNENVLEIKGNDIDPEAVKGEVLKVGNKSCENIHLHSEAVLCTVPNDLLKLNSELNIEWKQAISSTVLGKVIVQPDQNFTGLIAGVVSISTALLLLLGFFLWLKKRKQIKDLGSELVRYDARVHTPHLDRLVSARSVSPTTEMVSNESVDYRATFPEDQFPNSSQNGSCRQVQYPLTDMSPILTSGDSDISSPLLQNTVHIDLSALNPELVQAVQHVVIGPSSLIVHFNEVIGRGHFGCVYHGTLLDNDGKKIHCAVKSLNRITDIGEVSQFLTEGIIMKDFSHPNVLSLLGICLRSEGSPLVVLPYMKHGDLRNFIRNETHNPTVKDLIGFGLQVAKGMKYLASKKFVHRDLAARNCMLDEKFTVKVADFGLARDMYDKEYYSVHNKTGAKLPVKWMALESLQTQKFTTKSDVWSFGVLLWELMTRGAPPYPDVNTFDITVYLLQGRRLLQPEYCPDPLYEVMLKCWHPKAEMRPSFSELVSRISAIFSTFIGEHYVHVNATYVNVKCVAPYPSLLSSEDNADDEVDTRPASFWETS

SMILES | IC50 (HepG2) | IC50 (MCF7) | IC50 [1] | IC50 (A549)
CNC(=O)c1cc(Oc2ccc(NC(=O)c3nn(-c4ccccc4OC(F)(F)F)c(=O)cc3C)cc2F)ccn1 | > 40 µM | > 40 µM |  | > 40 µM
Cc1cc(=O)n(-c2ccc(Br)cc2F)nc1C(=O)Nc1ccc(Oc2ncnc3sccc23)c(F)c1 | 13.8 µM | 13.2 µM |  | 11.5 µM
CNC(=O)c1cc(Oc2ccc(NC(=O)c3nn(-c4ccccc4C(F)(F)F)c(=O)cc3C)cc2F)ccn1 | > 40 µM | 35.7 µM |  | > 40 µM
Cc1ccc(-n2nc(C(=O)Nc3ccc(Oc4ncnc5ccsc45)c(F)c3)c(C)cc2=O)cc1 | 17.2 µM | 7.25 µM |  | 5.89 µM
Cc1cc(=O)n(-c2ccccc2C(F)(F)F)nc1C(=O)Nc1ccc(Oc2ncnc3sccc23)c(F)c1 | 14.7 µM | 13.8 µM |  | 16.3 µM
Cc1ccc(-n2nc(C(=O)Nc3ccc(Oc4ncnc5sccc45)c(F)c3)c(C)cc2=O)cc1 | > 40 µM | > 40 µM |  | > 40 µM
Cc1ccc(-n2nc(C(=O)Nc3ccc(Oc4ncnc5sccc45)cc3)c(C)cc2=O)cc1 | > 40 µM | > 40 µM |  | > 40 µM
Cc1cc(=O)n(-c2ccc(F)c(F)c2)nc1C(=O)Nc1ccc(Oc2ncnc3sccc23)cc1 | 16.8 µM | 16.1 µM |  | 13.5 µM
Cc1cc(=O)n(-c2ccccc2OC(F)(F)F)nc1C(=O)Nc1ccc(Oc2ncnc3sccc23)cc1 | 14.4 µM | 11 µM |  | 15.5 µM
CNC(=O)c1cc(Oc2ccc(NC(=O)c3nn(-c4ccccc4F)c(=O)cc3C)cc2F)ccn1 | > 40 µM | > 40 µM |  | > 40 µM
Cc1cc(=O)n(-c2ccccc2OC(F)(F)F)nc1C(=O)Nc1ccc(Oc2ncnc3ccsc23)cc1 | 25 µM | 23.8 µM |  | 10.1 µM
Cc1ccc(-n2nc(C(=O)Nc3ccc(Oc4ncnc5ccsc45)cc3)c(C)cc2=O)c(C)c1 | 17.9 µM | 11.9 µM |  | 16.4 µM
Cc1cc(=O)n(-c2cccc(F)c2)nc1C(=O)Nc1ccc(Oc2ncnc3sccc23)cc1 | 18.5 µM | 27.2 µM |  | 16.4 µM
Cc1ccc(-n2ccc(=O)c(C(=O)Nc3ccc(Oc4ncnc5ccsc45)c(F)c3)n2)cc1 | 24.2 µM | 23.2 µM |  | 11.6 µM
Cc1cc(=O)n(-c2ccccc2C(F)(F)F)nc1C(=O)Nc1ccc(Oc2ncnc3sccc23)cc1 | > 40 µM | > 40 µM |  | 19.9 µM
Cc1cc(=O)n(-c2cccc(F)c2)nc1C(=O)Nc1ccc(Oc2ncnc3sccc23)c(F)c1 | 24.4 µM | 17.3 µM |  | 19.5 µM
Cc1ccc(-n2nc(C(=O)Nc3ccc(Oc4ncnc5ccsc45)cc3)c(C)cc2=O)cc1 | 25 µM | 23.8 µM |  | 11.5 µM
Cc1cc(=O)n(-c2ccccc2OC(F)(F)F)nc1C(=O)Nc1ccc(Oc2ncnc3sccc23)c(F)c1 | > 40 µM | > 40 µM |  | > 40 µM
Cc1cc(=O)n(-c2ccc(F)c(F)c2)nc1C(=O)Nc1ccc(Oc2ncnc3sccc23)c(F)c1 | > 40 µM | 20.6 µM |  | 15.7 µM
Cc1cc(=O)n(-c2ccccc2OC(F)(F)F)nc1C(=O)Nc1ccc(Oc2ncnc3ccsc23)c(F)c1 | 15.7 µM | 11.5 µM |  | 5.72 µM

Further molecules by falling IC50 (HepG2), results first:

IC50 (HepG2) | IC50 (MCF7) | IC50 [1] | SMILES | IC50 (A549)
13.5 µM | 12.4 µM |  | O=C(Nc1ccc(Oc2ncnc3ccsc23)c(F)c1)c1nn(-c2ccccc2)ccc1=O | 19.7 µM
12.5 µM | 12.3 µM |  | Cc1cc(=O)n(-c2ccc(F)cc2)nc1C(=O)Nc1ccc(Oc2ncnc3sccc23)c(F)c1 | 2.62 µM
10.7 µM | 9.62 µM |  | O=C(Nc1ccc(Oc2ncnc3ccsc23)c(F)c1)c1nn(-c2ccc(Br)cc2)ccc1=O | 7.84 µM
10.6 µM | 9.36 µM |  | Cc1cc(=O)n(-c2ccc(Br)cc2F)nc1C(=O)Nc1ccc(Oc2ncnc3ccsc23)cc1 | 7.93 µM
10.6 µM | 8.38 µM |  | CNC(=O)c1cc(Oc2ccc(NC(=O)c3nn(-c4ccc(C)cc4)c(=O)cc3C)cc2F)ccn1 | 11.5 µM
10.6 µM | 6.63 µM |  | O=C(Nc1ccc(Oc2ncnc3ccsc23)c(F)c1)c1nn(-c2ccc(F)c(Cl)c2)ccc1=O | 9.65 µM
10.2 µM | 6.41 µM |  | CNC(=O)c1cc(Oc2ccc(NC(=O)c3nn(-c4cccc(F)c4)c(=O)cc3C)cc2F)ccn1 | 9.54 µM
10.2 µM | 6.41 µM |  | Cc1cc(=O)n(-c2cccc(F)c2)nc1C(=O)Nc1ccc(Oc2ncnc3ccsc23)cc1 | 9.54 µM
9.38 µM | 6.02 µM |  | Cc1cc(=O)n(-c2ccccc2C(F)(F)F)nc1C(=O)Nc1ccc(Oc2ncnc3ccsc23)c(F)c1 | 4.68 µM
9.23 µM | 5.55 µM |  | Cc1cc(=O)n(-c2ccc(F)c(F)c2)nc1C(=O)Nc1ccc(Oc2ncnc3ccsc23)cc1 | 8.18 µM
9.23 µM | 5.55 µM |  | Cc1cc(=O)n(-c2ccccc2C(F)(F)F)nc1C(=O)Nc1ccc(Oc2ncnc3ccsc23)cc1 | 8.85 µM
9.16 µM | 5.72 µM |  | O=C(Nc1ccc(Oc2ncnc3ccsc23)c(F)c1)c1nn(-c2ccc(F)cc2)ccc1=O | 8.23 µM
7.81 µM | 9.05 µM |  | Cc1cc(=O)n(-c2cccc(F)c2)nc1C(=O)Nc1ccc(Oc2ncnc3ccsc23)c(F)c1 | 5.22 µM
6.93 µM | 6.9 µM |  | Cc1cc(=O)n(-c2ccc(F)c(F)c2)nc1C(=O)Nc1ccc(Oc2ncnc3ccsc23)c(F)c1 | 4.59 µM
6.46 µM | 21 µM |  | Cc1cc(=O)n(-c2ccc(F)cc2)nc1C(=O)Nc1ccc(Oc2ncnc3sccc23)cc1 | 7.05 µM
6.3 µM | 15.2 µM |  | Cc1cc(=O)n(-c2ccc(Br)cc2F)nc1C(=O)Nc1ccc(Oc2ncnc3sccc23)cc1 | 12.8 µM
3.35 µM | 1.55 µM | 0.032 µM | Cc1cc(=O)n(-c2ccc(Br)cc2F)nc1C(=O)Nc1ccc(Oc2ncnc3ccsc23)c(F)c1 | 2.98 µM
2.83 µM | 9.36 µM |  | CNC(=O)c1cc(Oc2ccc(NC(=O)c3nn(-c4ccc(Br)cc4F)c(=O)cc3C)cc2F)ccn1 | 7.93 µM
2.11 µM | 4.4 µM | 0.048 µM | Cc1cc(=O)n(-c2ccc(F)cc2)nc1C(=O)Nc1ccc(Oc2ncnc3ccsc23)cc1 | 2.36 µM
